Laboratory results as given in US11358939B2, “1,4-benzodiazepin-2-one derivatives and use thereof” (priority 2017, dated 2022).

Key:
Type in all cases: in vivo
[1] = tested on: writhes induced by intraperitoneal acetic acid; experiment: Analgesic activity, acetic acid-induced writhing test (peripheral pain model); conditions: for Writhing inhibition, % of control in 1 mg/kg dose: 1 mg/kg intraperitoneally, 40 min before 0.75% acetic acid; for ED50, analgesic activity in writhing test / ED50: intraperitoneal, Prozorovsky method; for ED50: ip
Description: Assessment of analgesic activity was performed in a model of peripheral pain based on chemical pain induced by intraperitoneal administration of acetic acid, leading to involuntary contractions of abdominal muscles, termed “writhes”, accompanied by hind leg extension and spine arching. The writhes were induced by 0.75% solution of acetic acid, which was administered intraperitoneally 40 min after intraperitoneal administration of test compounds in 0.001-5 mg/kg dose range. […] Analgesic activity was assessed by the ability of the compounds to reduce the number of writhes in test group compared to control group, and indicated as percentage using the following formula: AA=(Wc−Wt/Wc)×100%,
where AA—analgesic activity in %;
Wc—average number of writhes in control group;
Wt—average number of writhes in test group
Test compounds were studied in comparison with the reference drug sodium diclofenac in 10 mg/kg dose. ED50 was calculated using Prozorovsky method.

[2] = tested on: general movement activity of animals; experiment: General movement activity, open field test; conditions: for General movement activity (5 mg/kg): open field 3 min, sum of rearings, transitions, explored holes, 30 min before test; for Sedative properties (words, from general movement activity versus control): 5 mg/kg
Description: General movement activity was assessed in an open field test. While the animals were in the open field (3 min), the number of rearings (vertical movement activity), transitions between squares (horizontal movement activity) and the number of explored holes (exploratory activity) were registered. The sum of these values is general movement activity.
(§1) Diazepam drug was used as the reference drug. All test compounds and the reference drug diazepam were administered in a suspension with Tween-80 in 5 mg/kg dose 30 min before the start of experiments.

[3] = tested on: number of drinking actions despite electric shock; experiment: Anxiolytic activity, conflict situation model (drinking versus electric shock); conditions: for Anxiolytic activity assessed using conflict situation method (5 mg/kg): number of drinking actions despite electric shock, 30 min before test; for Anxiolytic properties: 5 mg/kg
Description: Anxiolytic activity was assessed in a model of conflict situation based on the conflict of two reflexes (drinking and defensive) when drinking water from a water fountain. Anxiolytic activity was assessed by the number of drinking actions despite electric shock.
as §1

food consumption by rats = experiment: Action on appetite, Anorexia method (liquid food consumption); conditions: for Reduction in appetite and food consumption compared to control: Table 6 dose 0,1 mg/kg; for Amount of consumed liquid food during 30 min in ml / Food consumption, % of control: dose 0,1 mg/kg intraperitoneally
Description: Studies of pharmacological activity of 3-arylamino-1,3-dihydro-2H-benzo[e][1,4]diazepin-2-ones, namely, their action of appetite, assessment of antihypoxic and antidepressant activity was performed in white male rats with body mass 150-180 g and male mice with body mass 18-22 g. The animals were kept on a standard laboratory diet and natural lighting. Animals of control group were given a water-Tween suspension. Test compounds were administered in a suspension with Tween-80 Reference drugs were the hormone leptin, in 0.0002 mg/kg dose, and a well-known antidepressant amitriptyline (solution for injections in 1 ml vials. Test compounds and the water-Tween suspension were administered in a dose of 0.2 ml/100 g of rat body mass.
The action of the compounds on rat appetite was studied using «norexia» method. For 2 weeks in an experimental equipment the rats were conditioned to consume liquid food. Then a water-Tween suspension of test articles was administered intraperitoneally to conditioned animals one day before the experiment. After 40 minutes the animals were allowed access to liquid food and the amount of consumed food (in ml) of every rat was registered every 30 minutes for 3 hours. The next day after 2 hours of deprivation the rats in control group were administered a water-Tween suspension intraperitoneally, while the test group was administered the test articles. After 40 minutes the animals were allowed access to liquid food and the amount of consumed food (in ml) of every rat was registered every 30 minutes for 3 hours. Then all food consumption values for each rat were summed and compared to control values. The control group has consumed on average 7 ml of liquid food per 30 minutes. The effect was calculated in percentage compared to control.

Structure (SMILES)	Writhing inhibition, % of control in 1 mg/kg dose ([1]; compounds Ib)	General movement activity (5 mg/kg) [2]	Anxiolytic activity assessed using conflict situation method (5 mg/kg) [3]	Amount of consumed liquid food during 30 min in ml (food consumption by rats)	Food consumption, % of control (food consumption by rats)	further results
COC(=O)CN1C(=O)C(Nc2cccc(C(C)=O)c2)N=C(c2ccccc2F)c2cc(Br)ccc21 (stereo not drawn) [Compound 90]	68%	24.5 ± 2.3	8.2 ± 3.4			
COC(=O)CN1C(=O)C(Nc2cccc([N+](=O)[O-])c2)N=C(c2ccccc2)c2cc(OC(F)(F)F)ccc21 (stereo not drawn) [Compound 228]	62%	17.0 ± 2.4	40.6 ± 3.9			
O=C1Nc2ccc([N+](=O)[O-])cc2C(c2ccccc2F)=NC1Nc1ccccc1Cl (stereo not drawn) [Compound 356]				2,9 ± 2,1 ml	39%	Reduction in appetite and food consumption compared to control (food consumption by rats): 39%
O=C1Nc2ccc([N+](=O)[O-])cc2C(c2ccccc2Cl)=NC1Nc1cccc(Br)c1 (stereo not drawn) [Compound 321]				6,1 ± 3,2 ml	82%	
CN1C(=O)CN=C(c2ccccc2)c2cc(Cl)ccc21 [Diazepam, reference compound]		32.5 ± 2.8	120.0 ± 4.9			
COC(=O)CN1C(=O)C(Nc2ccccc2Cl)N=C(c2ccccc2F)c2cc([N+](=O)[O-])ccc21 (stereo not drawn) [Compound 362]	65%	29.2 ± 2.3	35.1 ± 3.5			
O=C1Nc2ccc([N+](=O)[O-])cc2C(c2ccccc2F)=NC1Nc1ccc(Cl)cc1 (stereo not drawn) [Compound 358]				6,7 ± 3,2 ml	90%	Effect on appetite (food consumption by rats): hyperphagic effect
O=C1Nc2ccc([N+](=O)[O-])cc2C(c2ccccc2Cl)=NC1Nc1ccccc1Br (stereo not drawn) [Compound 320]				6,5 ± 3,4 ml	88%	
COC(=O)CN1C(=O)C(Nc2cccc(Br)c2)N=C(c2ccccc2Cl)c2cc([N+](=O)[O-])ccc21 (stereo not drawn) [Compound 327]	70%	45.0 ± 3.7	43.4 ± 3.2			Sedative properties (words, from general movement activity versus control) [2]: don't have sedative properties
O=C1Nc2ccc([N+](=O)[O-])cc2C(c2ccccc2Cl)=NC1Nc1ccc(Br)cc1 (stereo not drawn) [Compound 322]				7,8 ± 2,7 ml	105%	
COC(=O)CN1C(=O)C(Nc2ccccc2[N+](=O)[O-])N=C(c2ccccc2)c2cc([N+](=O)[O-])ccc21 (stereo not drawn) [Compound 281]	61%	14.0 ± 1.4	115.6 ± 9.3			Anxiolytic properties [3]: potent anxiolytic properties
O=C1Nc2ccc(Cl)cc2C(c2ccccc2)=NC1Nc1ccccc1Br (stereo not drawn) [Compound 161]				5,5 ± 2,4 ml	74%	
COC(=O)CN1C(=O)C(Nc2ccccc2[N+](=O)[O-])N=C(c2ccccc2)c2cc(Cl)ccc21 (stereo not drawn) [Compound 173]	55%	15.0 ± 1.3	120.5 ± 10.3			Anxiolytic properties [3]: potent anxiolytic properties
COC(=O)CN1C(=O)C(Nc2ccc(Br)cc2)N=C(c2ccccc2Cl)c2cc([N+](=O)[O-])ccc21 (stereo not drawn) [Compound 328]	69%	24.5 ± 2.3	23.2 ± 3.4			
CC(=O)c1cccc(NC2N=C(c3ccccc3F)c3cc([N+](=O)[O-])ccc3NC2=O)c1 (stereo not drawn) [Compound 348]				21,4 ± 4,9 ml	284%	
COC(=O)CN1C(=O)C(Nc2cccc(Cl)c2)N=C(c2ccccc2F)c2cc([N+](=O)[O-])ccc21 (stereo not drawn) [Compound 363]	70%	41.0 ± 3.9	46.4 ± 4.2			Sedative properties (words, from general movement activity versus control) [2]: don't have sedative properties
COC(=O)CN1C(=O)C(Nc2ccccc2C(C)=O)N=C(c2ccccc2F)c2cc(Br)ccc21 (stereo not drawn) [Compound 89]	66%	40.0 ± 2.7	3.4 ± 1.2			Sedative properties (words, from general movement activity versus control) [2]: don't have sedative properties

Structure (SMILES)	Writhing inhibition, % of control in 1 mg/kg dose ([1]; compounds Ib)	General movement activity (5 mg/kg) [2]	Anxiolytic activity assessed using conflict situation method (5 mg/kg) [3]	Amount of consumed liquid food during 30 min in ml (food consumption by rats)	Food consumption, % of control (food consumption by rats)	further results
COC(=O)CN1C(=O)C(Nc2ccccc2[N+](=O)[O-])N=C(c2ccccc2)c2cc(OC(F)(F)F)ccc21 (stereo not drawn) [Compound 227]	60%	13.0 ± 1.3	109.5 ± 8.3			Anxiolytic properties [3]: potent anxiolytic properties
COC(=O)CN1C(=O)C(Nc2ccccc2F)N=C(c2ccccc2Cl)c2cc([N+](=O)[O-])ccc21 (stereo not drawn) [Compound 317]	63%	47.0 ± 3.7	33.4 ± 3.2			Sedative properties (words, from general movement activity versus control) [2]: don't have sedative properties
CC(=O)c1ccc(NC2N=C(c3ccccc3F)c3cc([N+](=O)[O-])ccc3NC2=O)cc1 (stereo not drawn) [Compound 349]				14 ± 1,8 ml	189%	
CCCCOC1N=C(c2ccccc2)c2cc(Cl)ccc2N(CC(=O)OC)C1=O (stereo not drawn) [Compound 23]						Writhing inhibition, % of control in 1 mg/kg dose ([1]; compounds Ia): 52%
O=C1Nc2ccc(Cl)cc2C(c2ccccc2)=NC1Nc1ccc(Br)cc1 (stereo not drawn) [Compound 163]				6,8 ± 2,7 ml	92%	
O=C1Nc2ccc(OC(F)(F)F)cc2C(c2ccccc2)=NC1Nc1ccc(Cl)cc1 (stereo not drawn) [Compound 196]				6,5 ± 3,2 ml	88%	
CCCOC1N=C(c2ccccc2)c2cc(Cl)ccc2N(CC(=O)OC)C1=O (stereo not drawn) [Compound 22]						Writhing inhibition, % of control in 1 mg/kg dose ([1]; compounds Ia): 70%; ED50, analgesic activity in writhing test [1]: 0.08 ± 0.02 mg/kg
O=C(O)Cc1ccccc1Nc1c(Cl)cccc1Cl [sodium diclofenac, reference compound]						ED50 [1]: 10 ± 1.8 mg/kg
O=C1Nc2ccc([N+](=O)[O-])cc2C(c2ccccc2)=NC1Nc1cccc(Cl)c1 (stereo not drawn) [Compound 249]				5,1 ± 2,2 ml	69%	
O=C1Nc2ccc([N+](=O)[O-])cc2C(c2ccccc2)=NC1Nc1ccccc1Cl (stereo not drawn) [Compound 248]				3,1 ± 2,4 ml	41%	Reduction in appetite and food consumption compared to control (food consumption by rats): 41%
CC(=O)c1ccccc1NC1N=C(c2ccccc2F)c2cc([N+](=O)[O-])ccc2NC1=O (stereo not drawn) [Compound 347]				6,5 ± 2,7 ml	105%	
O=C1Nc2ccc(OC(F)(F)F)cc2C(c2ccccc2)=NC1Nc1cccc(Cl)c1 (stereo not drawn) [Compound 195]				5,7 ± 2,2 ml	77%	
CCOC1N=C(c2ccccc2)c2cc(Cl)ccc2N(CC(=O)OC)C1=O (stereo not drawn) [Compound 21]						Writhing inhibition, % of control in 1 mg/kg dose ([1]; compounds Ia): 62%; ED50, analgesic activity in writhing test [1]: 0.29 ± 0.025 mg/kg
O=C1Nc2ccc(Cl)cc2C(c2ccccc2)=NC1Nc1cccc(Br)c1 (stereo not drawn) [Compound 162]				5,1 ± 2,2 ml	69%	
O=C1Nc2ccc(Cl)cc2C(c2ccccc2)=NC1Nc1ccccc1F (stereo not drawn) [Compound 152]				3,5 ± 1,3 ml	47%	
COc1ccc2c(c1)c(CC(=O)O)c(C)n2C(=O)c1ccc(Cl)cc1 [indomethacin, reference compound]						ED50 [1]: 1.5 ± 0.26 mg/kg
